The target in test [1] is T1, Ras farnesyl transferase (Homo sapiens, UniProt P49354+P49356).
T1 construct: made in house
In words: In vitro inhibitory activity for Ras farnesyl transferase, H-Ras substrate. Format: biochemical. Particulars: recombinant farnesyl transferase 4.5 nM, Ras substrate protein 1.5 μM, tritium-farnesylpyrophosphate 0.15 μM, 30 minutes at 37° C.; read-out: H-Ras IC50.

Test [2] addresses T2, Ras farnesyl transferase (Rattus norvegicus, UniProt Q02293+Q04631).
T2 construct: endogenous in cells; host or cells: Rat2 fibroblasts transformed with H-Ras or with an H-Ras/K-Ras C-terminus fusion
In words: In vivo (cellular) inhibitory activity for Ras farnesyl transferase, Rat2 cell line transformed with fused protein of H-Ras substituted with polybasic lysine domain at C-terminus of K-Ras. Format: cell-based. Particulars: Rat2 cell line transformed with H-Ras fused with polybasic lysine domain of K-Ras C-terminus; concentration inhibiting 50% of farnesyl bonding; read-out: K-Ras CIC50. In a few lines:
(§1)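 Farnesylated versus unfarnesylated Ras bands were measured by autoradiography after Y13-259 immunoprecipitation and SDS-PAGE, giving CIC50 as 50% inhibition of farnesylation. Rat2 cells expressing H-Ras or an H-Ras fusion with K-Ras polybasic C-terminus got compound (1% DMSO), then [35S]methionine from 4 h onward for 20 h.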

The target in test [3] is T1, Ras farnesyl transferase. Put plainly: In vitro inhibitory activity for Ras farnesyl transferase, K-Ras substrate. The conditions noted are these: in vitro farnesyl transferase assay, K-Ras; read-out: K-Ras IC50. Format: biochemical.
Test [4] has as its target T2, Ras farnesyl transferase. Put plainly: In vivo (cellular) inhibitory activity for Ras farnesyl transferase, Rat2 cell line which expresses C-Harvey-Ras protein. Format: cell-based. The conditions noted are these: Rat2 cell line expressing C-Harvey-Ras; concentration inhibiting 50% of farnesyl bonding of Ras protein; read-out: H-Ras CIC50. In a few lines:
as §1

Take `COCCN(C)C(=O)c1cn(Cc2cncn2CCc2cccc(Cl)c2)cc1-c1cccc2ccccc12` [Compound 25, 1-[1-(3-Chloro)phenethyl-1H-imidazol-5-yl]methyl-3-[N-(2-methoxyethyl)-N-methyl]carbamoyl-4-(naphthalen-1-yl)-1H-pyrrole]: the IC50 was 2 nM at Ras farnesyl transferase [1], 10000 to 50000 nM on Ras farnesyl transferase [2], 5 nM at Ras farnesyl transferase [3] and 15 nM at Ras farnesyl transferase [4].
As for `CN1CCN(C(=O)c2cn(Cc3cncn3CCc3cccc(Cl)c3)cc2-c2cccc3ccccc23)CC1` [Compound 26, 1-[1-(3-Chloro)phenethyl-1H-imidazol-5-yl]methyl-3-[4-methylpiperazin-1-yl]carbonyl-4-(naphthalen-1-yl)-1H-pyrrole], the IC50 was 2 nM at Ras farnesyl transferase [1], 10000 to 50000 nM at Ras farnesyl transferase [2], 3 nM at Ras farnesyl transferase [3] and 15 nM at Ras farnesyl transferase [4].
In the case of `COCCN(C)C(=O)c1cn(Cc2cncn2CCCc2ccccc2)cc1-c1cccc2ccccc12` [Compound 27, 3-[N-(2-Methoxyethyl)-N-methyl]carbamoyl-4-(naphthalen-1-yl)-1-[1-(3-pheny)propyl-1H-imidazol-5-yl]methyl-1H-pyrrole], the IC50 at Ras farnesyl transferase [1] was 6 nM; at Ras farnesyl transferase [2], 10000 to 30000 nM; on Ras farnesyl transferase [3] it was 5 nM; on Ras farnesyl transferase [4], 25 nM.
Turning to `CN1CCN(C(=O)c2cn(Cc3cncn3CCCc3ccccc3)cc2-c2cccc3ccccc23)CC1` [Compound 28], the IC50 at Ras farnesyl transferase [1] is 1 nM; at Ras farnesyl transferase [2] it was 10000 to 30000 nM; on Ras farnesyl transferase [3], 2 nM; on Ras farnesyl transferase [4] it was 20 nM.
The like results for `COCCN(C)C(=O)c1cn(Cc2cncn2Cc2ccc3ccccc3c2)cc1-c1cccc2ccccc12` [Compound 29, 3-[N-(2-Methoxyethyl)-N-methyl]carbamoyl-4-(naphthalen-1-yl)-1-[1-(naphthalen-2-yl)methyl-1H-imidazol-5-yl]methyl-1H-pyrrole] were, in that order, 2 nM, 10000 to 20000 nM, 4 nM and 10 nM.
Regarding `CN1CCN(C(=O)c2cn(Cc3cncn3Cc3ccc4ccccc4c3)cc2-c2cccc3ccccc23)CC1` [Compound 30], the IC50 at Ras farnesyl transferase [1] is 2 nM; at Ras farnesyl transferase [2] it was 10000 to 20000 nM; on Ras farnesyl transferase [3], 4 nM; on Ras farnesyl transferase [4], 10 nM.
Consider `COCCN(C)C(=O)c1cn(Cc2cncn2CCc2cccc3ccccc23)cc1-c1cccc2ccccc12` [Compound 31, 3-[N-(2-Methoxyethyl)-N-methyl]carbamoyl-4-(naphthalen-yl)-1-{1-[2-(naphthalen-1-yl)ethyl]-1H-imidazol-5-yl}methyl-1H-pyrrole], for which the IC50 was 2 nM on Ras farnesyl transferase [1], 10000 to 20000 nM on Ras farnesyl transferase [2], 5 nM at Ras farnesyl transferase [3] and 12 nM at Ras farnesyl transferase [4].
Regarding `CN1CCN(C(=O)c2cn(Cc3cncn3CCc3cccc4ccccc34)cc2-c2cccc3ccccc23)CC1` [Compound 32, 3-[4-Methylpiperazin-1-yl]carbonyl-4-(naphthalen-1-yl)-1-{1-[2-(naphthalen-1-yl)ethyl]-1H-imidazol-5-yl}methyl-1H-pyrrole], the IC50 is 2 nM at Ras farnesyl transferase [1], 10000 to 50000 nM at Ras farnesyl transferase [2], 3 nM on Ras farnesyl transferase [3] and 15 nM at Ras farnesyl transferase [4].
Take `COCCN(C)C(=O)c1cn(Cc2cncn2CCc2ccc(Br)cc2)cc1-c1cccc2ccccc12` [Compound 33, 1-[1-(4-Bromo)phenethyl-1H-imidazol-5-yl]methyl-3-[N-(2-methoxyethyl)-N-methyl]carbamoyl-4-(naphthalen-1-yl)-1H-pyrrole]: the IC50 is 2 nM on Ras farnesyl transferase [1], 10000 to 50000 nM at Ras farnesyl transferase [2], 3 nM at Ras farnesyl transferase [3] and 18 nM on Ras farnesyl transferase [4].
Take `CN1CCN(C(=O)c2cn(Cc3cncn3CCc3ccc(Br)cc3)cc2-c2cccc3ccccc23)CC1` [Compound 34, 1-[1-(4-Bromo)phenethyl-1H-imidazol-5-yl]methyl-3-[4-methylpiperazin-1-yl]carbonyl-4-(naphthalen-1-yl)-1H-pyrrole]: the IC50 on Ras farnesyl transferase [1] was 2 nM; at Ras farnesyl transferase [2], 10000 to 50000 nM; at Ras farnesyl transferase [3], 3 nM; at Ras farnesyl transferase [4], 20 nM.
Regarding `COCCN(C)C(=O)c1cn(Cc2cncn2CCc2ccc(F)cc2)cc1-c1cccc2ccccc12` [Compound 35, 1-[1-(4-Fluoro)phenethyl-1H-imidazol-5-yl]methyl-3-[N-(2-methoxyethyl)-N-methyl]carbamoyl-4-(naphthalen-1-yl)-1H-pyrrole], the IC50 was 1 nM on Ras farnesyl transferase [1], 10000 to 50000 nM on Ras farnesyl transferase [2], 2 nM at Ras farnesyl transferase [3] and 25 nM at Ras farnesyl transferase [4].
For the compound `CN1CCN(C(=O)c2cn(Cc3cncn3CCc3ccc(F)cc3)cc2-c2cccc3ccccc23)CC1` [Compound 36, 1-[1-(4-Fluoro)phenethyl-1H-imidazol-5-yl]methyl-3-[4-methylpiperazin-1-yl]carbonyl-4-(naphthalen-1-yl)-1H-pyrrole], the IC50 on Ras farnesyl transferase [1] is 1 nM; at Ras farnesyl transferase [2] it was 10000 to 50000 nM; at Ras farnesyl transferase [3], 2 nM; at Ras farnesyl transferase [4] it was 25 nM.
With `COCCN(C)C(=O)c1cn(Cc2cncn2CCc2ccc(C)cc2)cc1-c1cccc2ccccc12` [Compound 37, 3-[N-(2-Methoxyethyl)-N-methyl]carbamoyl-1-[1-(4-methyl)phenethyl-1H-imidazol-5-yl]methyl-4-(naphthalen-1-yl)-1H-pyrrole], the IC50 is 2 nM at Ras farnesyl transferase [1], 10000 to 50000 nM on Ras farnesyl transferase [2], 3 nM at Ras farnesyl transferase [3] and 25 nM at Ras farnesyl transferase [4].
For `Cc1ccc(CCn2cncc2Cn2cc(C(=O)N3CCN(C)CC3)c(-c3cccc4ccccc34)c2)cc1` [Compound 38, 1-[1-(4-Methyl)phenethyl-1H-imidazol-5-yl]methyl-3-[4-methylpiperazin-1-yl]carbonyl-4-(naphthalen-1-yl)-1H-pyrrole], the IC50 was 2 nM at Ras farnesyl transferase [1], 10000 to 50000 nM at Ras farnesyl transferase [2], 4 nM at Ras farnesyl transferase [3] and 25 nM at Ras farnesyl transferase [4].
In the case of `COCCN(C)C(=O)c1cn(Cc2cncn2CCc2ccc(Cl)cc2)cc1-c1cccc2ccccc12` [Compound 39, 1-[1-(4-Chloro)phenethyl-1H-imidazol-5-yl]methyl-3[N-(2-methoxyethyl)-N-methyl]carbamoyl-4-(naphthalen-1-yl)-1H-pyrrole], the IC50 on Ras farnesyl transferase [1] was 2 nM; at Ras farnesyl transferase [2], 10000 to 50000 nM; at Ras farnesyl transferase [3], 3 nM; on Ras farnesyl transferase [4], 20 nM.
Take `CN1CCN(C(=O)c2cn(Cc3cncn3CCc3ccc(Cl)cc3)cc2-c2cccc3ccccc23)CC1` [Compound 40]: the IC50 on Ras farnesyl transferase [1] is 2 nM; on Ras farnesyl transferase [2], 10000 to 50000 nM; at Ras farnesyl transferase [3], 3 nM; at Ras farnesyl transferase [4], 25 nM.
For `COCCN(C)C(=O)c1cn(Cc2cncn2CCc2ccc3ccccc3c2)cc1-c1cccc2ccccc12` [Compound 41, 3-[N-(2-Methoxyethyl)-N-methyl]carbamoyl-4-(naphthalen-1-yl)-1-{1-[2-(naphthalen-2-yl)ethyl]-1H-imidazol-5-yl}methyl-1H-pyrrole], in that order: 3 nM, 10000 to 50000 nM, 4 nM and 15 nM.
Consider `CN1CCN(C(=O)c2cn(Cc3cncn3CCc3ccc4ccccc4c3)cc2-c2cccc3ccccc23)CC1` [Compound 42, 3-[4-Methylpiperazin-1-yl]carbonyl-4-(naphthalen-1-yl)-1-{1-[2-(naphthalen-2-yl)ethyl]-1H-imidazol-5-yl}methyl-1H-pyrrole], for which the IC50 at Ras farnesyl transferase [1] was 4 nM; at Ras farnesyl transferase [2] it was 10000 to 50000 nM; at Ras farnesyl transferase [3], 3 nM; at Ras farnesyl transferase [4], 15 nM.
Turning to `CN1CCN(C(=O)c2cn(Cc3cncn3CCc3ccc(O)cc3)cc2-c2cccc3ccccc23)CC1` [Compound 43, 1-[1-(4-Hydroxy)phenethyl-1H-imidazol-5-yl]methyl-3-[4-mmethylpiperazin-1-yl]carbonyl-4-(naphthalen-1-yl)-1H-pyrrole], the IC50 on Ras farnesyl transferase [1] is 1 nM; at Ras farnesyl transferase [2] it was 5000 to 10000 nM; at Ras farnesyl transferase [3] it was 2 nM; at Ras farnesyl transferase [4], 15 nM.
For `O=C(c1cccs1)c1cn(Cc2c[nH]cn2)cc1-c1cccc2ccccc12` [Compound 44, 1-(1H-Imidazol-4-yl)methyl-4-(naphthalen-1-yl)-3-(thiophen-2-yl)carbonyl-1H-pyrrole], in that order: 250 nM, 10000 to 100000 nM, 100 to 10000 nM and 1000 to 50000 nM.
Turning to `O=C(c1ccsc1)c1cn(Cc2c[nH]cn2)cc1-c1cccc2ccccc12` [Compound 45], the IC50 on Ras farnesyl transferase [1] was 130 nM; on Ras farnesyl transferase [2] it was 10000 to 100000 nM; at Ras farnesyl transferase [3], 100 to 10000 nM; at Ras farnesyl transferase [4], 1000 to 50000 nM.
For `O=C(c1ccccc1)c1cn(Cc2c[nH]cn2)cc1-c1cccc2ccccc12` [Compound 46], the IC50 was 120 nM at Ras farnesyl transferase [1], 10000 to 100000 nM at Ras farnesyl transferase [2], 100 to 10000 nM at Ras farnesyl transferase [3] and 1000 to 50000 nM at Ras farnesyl transferase [4].
As to `O=C(c1ccccc1Br)c1cn(Cc2c[nH]cn2)cc1-c1cccc2ccccc12` [Compound 47], the IC50 on Ras farnesyl transferase [1] is 90 nM; at Ras farnesyl transferase [2], 10000 to 100000 nM; at Ras farnesyl transferase [3], 100 to 10000 nM; on Ras farnesyl transferase [4], 1000 to 50000 nM.

The record behind these values is patent US6472526B1, “Imidazole derivatives having an inhibitory activity for farnesyl transferase and process for preparation thereof” (LG Chemical Ltd., priority 1997, dated 2002).
